Test results as given in patent US9718828B2 (MERCK SHARP & DOHME CORP., priority 2011, dated 2017).
Counter-ions that a name gives are not always drawn. Like-named read-outs stand apart in the source and are kept apart here.

Target: Btk enzyme (His-Btk) (Homo sapiens (Human), UniProt Q06187)
Assay: Btk enzyme activity, IMAP fluorescence polarization assay (Assay Method A)
[1] = read-out: EC50 Btk activity values - Assay Method A, IMAP-FP, 60 min pre-incubation, 5 μM ATP, class 100-1000 is given as ≧100 nM-<1 μM

Btk enzyme (His-Btk), sequence (Q06187 whole entry): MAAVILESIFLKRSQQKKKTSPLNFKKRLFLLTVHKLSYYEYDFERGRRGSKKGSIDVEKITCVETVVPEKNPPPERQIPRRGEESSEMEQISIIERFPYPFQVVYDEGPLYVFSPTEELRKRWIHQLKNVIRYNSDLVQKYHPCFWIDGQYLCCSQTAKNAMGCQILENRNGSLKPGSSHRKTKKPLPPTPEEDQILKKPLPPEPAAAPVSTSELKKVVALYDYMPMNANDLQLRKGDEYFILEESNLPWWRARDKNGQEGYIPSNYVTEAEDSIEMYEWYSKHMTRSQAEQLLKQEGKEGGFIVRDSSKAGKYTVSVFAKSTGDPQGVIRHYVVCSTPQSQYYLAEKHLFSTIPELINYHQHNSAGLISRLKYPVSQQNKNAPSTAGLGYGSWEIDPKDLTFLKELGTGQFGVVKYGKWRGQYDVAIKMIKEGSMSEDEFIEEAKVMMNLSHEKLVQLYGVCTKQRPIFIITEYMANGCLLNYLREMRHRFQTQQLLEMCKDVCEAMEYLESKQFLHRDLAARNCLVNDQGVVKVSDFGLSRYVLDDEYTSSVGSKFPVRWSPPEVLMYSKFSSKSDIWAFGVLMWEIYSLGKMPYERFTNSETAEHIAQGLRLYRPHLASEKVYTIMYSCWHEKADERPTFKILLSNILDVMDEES

SMILES | EC50 [nM] | EC50 [1] [nM]
CN(C)C1(C(=O)N2CCC[C@@H](c3nc(-c4ccc(C(=O)Nc5cc(C(F)(F)F)ccn5)cc4)c4c(N)nccn34)C2)CC1 [Example 88, (R)-4-(8-amino-3-(1-(1-(dimethylamino)cyclopropane-carbonyl)piperidin-3 yl)imidazo[1,5-a]pyrazin-1-yl)-N-(4-(trifluoromethyl)pyridin-2-yl)benzamide] | 10 to 100 | 
CSCCC(=O)N1C[C@H](c2nc(-c3ccc(C(=O)Nc4cc(C(F)(F)F)ccn4)cc3)c3c(N)nccn23)CC[C@H]1C (relative stereo) [Example 187, 4-(8-amino-3-((trans)-6-methyl-1-(3-(methylthio)propanoyl)piperidin-3-yl)imidazo[1,5-a]pyrazin-1-yl)-N-(4-(trifluoromethyl)pyridin-2-yl)benzamide, TFA salt] | 10 to 100 | 
CCCc1ccnc(NC(=O)c2ccc(-c3nc(N4CCOCC4)n4ccnc(N)c34)cc2)c1 [Example 212, 4-(8-amino-3-morpholinoimidazo[1,5-a]pyrazin-1-yl)-N-(4-propylpyridin-2-yl)benzamide] |  | < 10
Cn1cc(CN2CCC[C@@H](c3nc(-c4ccc(C(=O)Nc5ccccn5)cc4)c4c(N)nccn34)C2)cn1 [Example 135, (R)-4-(8-amino-3-(1-((1-methyl-1H-pyrazol-4-yl)methyl)piperidin-3-yl)imidazo[1,5-a]pyrazin-1-yl)-N-(pyridin-2-yl)benzamide, TFA salt] |  | < 10
CC(C)c1ccnc(NC(=O)c2ccc(-c3nc([C@H]4CC[C@H](O)CC4)n4ccnc(N)c34)cc2)c1 [Example 6, 4-(8-amino-3-((trans)-4-hydroxycyclohexyl)imidazo[1,5-a]pyrazin-1-yl)-N-(4-isopropylpyridin-2-yl)benzamide] |  | < 10
COCCC(=O)N1C[C@@H](O)C[C@@H](c2nc(-c3ccc(C(=O)Nc4cc(C(F)(F)F)ccn4)cc3)c3c(N)nccn23)C1 (relative stereo) [Example 181, 4-(8-amino-3-((cis)-5-hydroxy-1-(3-methoxypropanoyl)piperidin-3-yl)imidazo[1,5-a]pyrazin-1-yl)-N-(4-(trifluoromethyl)pyridin-2-yl)benzamide] |  | < 10
CCN(CC)c1nc(-c2ccc(C(=O)Nc3cc(C(F)(F)F)ccn3)cc2)c2c(N)nccn12 [Example 216, 4-(8-amino-3-(diethylamino)imidazo[1,5-a]pyrazin-1-yl)-N-(4-(trifluoromethyl)pyridin-2-yl)benzamide] | 10 to 100 | 
CCNC(=O)N[C@@H]1CCCN(c2nc(-c3ccc(C(=O)Nc4cc(C(F)(F)F)ccn4)cc3)c3c(N)nccn23)C1 [Example 221, (R)-4-(8-amino-3-(3-(3-ethylureido)piperidin-1-yl)imidazo[1,5-a]pyrazin-1-yl)-N-(4-(trifluoromethyl)pyridin-2-yl)benzamide] |  | < 10
CCC(=O)NCC(C)c1nc(-c2ccc(C(=O)Nc3cc(C(F)(F)F)ccn3)cc2)c2c(N)nccn12 (centres unmarked) [Example 130, 4-(8-amino-3-(1-propionamidopropan-2-yl)imidazo[1,5-a]pyrazin-1-yl)-N-(4-(trifluoromethyl)pyridin-2-yl)benzamide] |  | < 10
Cc1nc(-c2ccc(C(=O)Nc3cc(C(F)(F)F)ccn3)cc2)c2c(N)ncc(C(=O)NCc3ccccc3)n12 [Example 292, 8-amino-N-benzyl-3-methyl-1-(4-(4-(trifluoromethyl)pyridin-2-ylcarbamoyl)phenyl)imidazo[1,5-a]pyrazine-5-carboxamide] | 100 to 1000 | 
COCCC(=O)N1CCC[C@@H](c2nc(-c3ccc(C(=O)Nc4ccccn4)cc3C)c3c(N)nccn23)C1 [Example 285, 4-(8-amino-3-((R)-1-(3-methoxypropanoyl)piperidin-3-yl)imidazo[1,5-a]pyrazin-1-yl)-3-methyl-N-(pyridin-2-yl)benzamide, TFA salt] | 10 to 100 | 
CC1(C)CC(c2nc(-c3ccc(C(=O)Nc4ccccn4)cc3)c3c(N)nccn23)CCO1 (centres unmarked) [Example 35, 4-(8-amino-3-(2,2-dimethyltetrahydro-2H-pyran-4-yl)imidazo[1,5-a]pyrazin-1-yl)-N-(pyridin-2-yl)benzamide] | 10 to 100 | 
Nc1nccn2c1c(-c1ccc(C(=O)Nc3nc4c(s3)COCC4)cc1)nc2[C@H]1CC[C@H](O)CC1 [Example 15, 4-(8-amino-3-((trans)-4-hydroxycyclohexyl)imidazo[1,5-a]pyrazin-1-yl)-N-(6,7-dihydro-4H-pyrano[4,3-d]thiazol-2-yl)benzamide] | 10 to 100 | 
COCCC(=O)N1CCC[C@@H](n2nc(-c3ccc(C(=O)Nc4cc(C(F)(F)F)ccn4)cc3)c3c(N)ncnc32)C1 [Example 280, (R)-4-(4-amino-1-(1-(3-methoxypropanoyl)piperidin-3-yl)-1H-pyrazolo[3,4-d]pyrimidin-3-yl)-N-(4-(trifluoromethyl)pyridin-2-yl)benzamide] |  | < 10
COCCC(=O)N1CCC[C@@H](c2nc(-c3ccc(C(=O)Nc4ccccn4)cn3)c3c(N)nccn23)C1 [Example 288, (R)-6-(8-amino-3-(1-(3-methoxypropanoyl)piperidin-3-yl)imidazo[1,5-a]pyrazin-1-yl)-N-(pyridin-2-yl) nicotinamide] | 100 to 1000 | 
Nc1nccn2c([C@@H]3CCCN(C(=O)NC45CC6CC(CC(C6)C4)C5)C3)nc(-c3ccc(C(=O)Nc4cc(C5CC5)ccn4)cc3)c12 [Example 121] | 10 to 100 | 
Nc1nccn2c([C@@H]3C[C@H](O)CN(C(=O)C4CC4)C3)nc(-c3ccc(C(=O)Nc4cc(C(F)(F)F)ccn4)cc3)c12 (relative stereo) [Example 180, 4-(8-amino-3-((cis)-1-(cyclopropanecarbonyl)-5-hydroxypiperidin-3-yl)imidazo[1,5-a]pyrazin-1-yl)-N-(4-(trifluoromethyl)pyridin-2-yl)benzamide] |  | < 10
CSCCNC(=O)C1CCCN(c2nc(-c3ccc(C(=O)Nc4cc(C(F)(F)F)ccn4)cc3)c3c(N)nccn23)C1 (centres unmarked) [Example 239, 1-(8-amino-1-(4-(4-(trifluoromethyl)pyridin-2-ylcarbamoyl)phenyl)imidazo[1,5-a]pyrazin-3-yl)-N-(2-(methylthio)ethyl)piperidine-3-carboxamide, TFA salt] |  | < 10
CC(C)(F)C(=O)N1CCC[C@@H](c2nc(-c3ccc(C(=O)Nc4cc(C(F)(F)F)ccn4)cc3)c3c(N)ncnn23)C1 [Example 257, (R)-4-(4-amino-7-(1-(2-fluoro-2-methylpropanoyl)piperidin-3-yl)imidazo[1,5-f][1,2,4]triazin-5-yl)-N-(4-(trifluoromethyl)pyridin-2-yl)benzamide] |  | < 10
Nc1nccn2c([C@@H]3CCCN(C(=O)C4(O)CC4)C3)nc(-c3ccc(C(=O)Nc4ccccn4)cc3)c12 [Example 94, (R)-4-(8-amino-3-(1-(1-hydroxycyclopropanecarbonyl)piperidin-3-yl)imidazo[1,5-a]pyrazin-1-yl)-N-(pyridin-2-yl)benzamide] | 10 to 100 | 
Nc1nccn2c([C@@H]3CCCN(C(=O)C4CC4)C3)nc(-c3ccc(C(=O)Nc4ccccn4)cc3)c12 [Example 52, (R)-4-(8-amino-3-(1-(cyclopropanecarbonyl)piperidin-3-yl)imidazo[1,5-a]pyrazin-1-yl)-N-(pyridin-2-yl)benzamide] | < 10 | 
Nc1ncc(Cl)n2c(C3CN(C(=O)C4(O)CCC4)CCO3)nc(-c3ccc(C(=O)Nc4cc(C(F)(F)F)ccn4)cc3)c12 (centres unmarked) [Example 316, 4-(8-amino-5-chloro-3-(4-(1-hydroxycyclobutanecarbonyl)morpholin-2-yl)imidazo[1,5-a]pyrazin-1-yl)-N-(4-(trifluoromethyl)pyridin-2-yl)benzamide] |  | < 10
CCNC(=O)N1CCC[C@@H](c2nc(-c3ccc(C(=O)Nc4cc(C(F)(F)F)ccn4)cc3)c3c(N)ncnn23)C1 [Example 256, (R)-3-(4-amino-5-(4-(4-(trifluoromethyl)pyridin-2-ylcarbamoyl)phenyl)imidazo[1,5-f][1,2,4]triazin-7-yl)-N-ethylpiperidine-1-carboxamide] |  | < 10
CC(C)C1CC(C(=O)N2CCC[C@@H](c3nc(-c4ccc(C(=O)Nc5cc(C(F)(F)F)ccn5)cc4)c4c(N)nccn34)C2)C1 (stereo partly drawn) [Example 89, (R)-4-(8-amino-3-(1-(3-isopropylcyclobutanecarbonyl)piperidin-3-yl)imidazo[1,5-a]pyrazin-1-yl)-N-(4-(trifluoromethyl)pyridin-2-yl)benzamide] | < 10 | 
CC(C)(O)CC(=O)N1CCC[C@@H](c2nc(-c3ccc(C(=O)Nc4cc(C(F)(F)F)ccn4)cc3)c3c(N)nccn23)C1 [Example 71, (R)-4-(8-amino-3-(1-(3-hydroxy-3-methylbutanoyl)piperidin-3-yl)imidazo[1,5-a]pyrazin-1-yl)-N-(4-(trifluoromethyl)pyridin-2-yl)benzamide] | < 10 | 
COCCC(=O)N1CCC[C@@H](c2nc(-c3ccc(C(=O)Nc4cc(C(F)(F)F)ccn4)cc3)c3c(N)ncc(/C=C/c4ccccc4)n23)C1 [Example 310, (R,E)-4-(8-amino-3-(1-(3-methoxypropanoyl)piperidin-3-yl)-5-styrylimidazo[1,5-a]pyrazin-1-yl)-N-(4-(trifluoromethyl)pyridin-2-yl)benzamide] |  | < 10
Nc1ncnc2c1c(-c1ccc(C(=O)Nc3cc(C(F)(F)F)ccn3)cc1)nn2[C@@H]1CCCN(C(=O)C2CC2)C1 [Example 269, (R)-4-(4-amino-1-(1-(cyclopropanecarbonyl)piperidin-3-yl)-1H-pyrazolo[3,4-d]pyrimidin-3-yl)-N-(4-(trifluoromethyl)pyridin-2-yl)benzamide] |  | < 10
Nc1nccn2c([C@@H]3CCC[C@H](NC(=O)OCc4ccccc4)C3)nc(-c3ccc(C(=O)Nc4cc(C(F)(F)F)ccn4)cc3)c12 (relative stereo) [Example 154, benzyl (cis)-3-(8-amino-1-(4-(4-(trifluoromethyl)pyridin-2-ylcarbamoyl)phenyl)imidazo [1,5-a]pyrazin-3-yl)cyclohexylcarbamate] | 10 to 100 | 
Nc1nccn2c([C@@H]3CCN(C(=O)C4CCOC4)C3)nc(-c3ccc(C(=O)Nc4ccccn4)cc3)c12 (stereo partly drawn) [Example 128, (R)-4-(8-amino-3-(1-(tetrahydrofuran-3-carbonyl)pyrrolidin-3-yl)imidazo[1,5-a]pyrazin-1-yl)-N-(pyridin-2-yl)benzamide, TFA salt] | 100 to 1000 | 
